Reference: patent US20140045885A1, “Decoquinate, 4-hydroxyquinolones and napthoquinones combined with levamisole, Imidazothiazole, for the prevention and treatment of sarcocystosis and equine protozoal myeloencephalitis caused by Sarcocystis and Neospora and other apicomplexan protozoans” (priority 2012, published 2014)
Read-outs that look alike come from different tables or passages of the source.

Columns and labels:
[1] = tested on: EPM; conditions: cited from earlier work; for cure rate / relapse rate: EPM treatment in horses; for efficacy in horses to improve one grade of disease: EPM treatment
[2] = cited from earlier work
[3] = cited from earlier work; remark: listed apart in the source
[4] = in vivo; cited from earlier work
[5] = tested on: S. neurona infections or EPM; assay: Trial in horses with presumptive diagnosis of EPM; assay type: in vivo, horse
Method: A trial was initiated in which veterinarians conducted neurological examinations and determined a presumptive diagnosis of EPM. […] The phenotype of S. neurona eliciting antibody production was determined for each animal. […] A neurological exam was conducted at the end of the treatment period and two to four weeks following treatment. Two to four weeks after treatment antibody levels were again assessed for serum antibody levels to S. neurona by phenotype. […] Veterinarians involved in the study elected to start decoquinate therapy at 0.05 mG/kG if the animals had received anti-protozoal therapy in the past and the case was considered a relapse of EPM.

[6] = Safety at the treatment dose in 150 horses; assay type: in vivo, horse; conditions: decoquinate 0.5 mG/kG and levamisole 1 mG/kG alone and in combination
[7] = tested on: Sarcocystis neurona merozoites (SN6 strain); conditions: 0.1 microgram/ml decoquinate for 5 or 15 minutes, washed off, read at 6 weeks; cited from earlier work
[8] = tested on: Sarcocystis neurona merozoites (SN3 strain); conditions: 0.1 microgram/ml decoquinate for 10 or 20 minutes, washed off, cultures maintained 16 days, controls 25% CPE; cited from earlier work
[9] = tested on: Sarcocystis neurona merozoites (SN2 strain); conditions: 0.1 microgram/ml decoquinate for 10 or 20 minutes, washed off, cultures maintained 16 days, controls 40% CPE; cited from earlier work
[10] = tested on: Sarcocystis neurona merozoites (SN3 strain); conditions: cited from earlier work
[11] = tested on: S. neurona; conditions: cell cultures infected with S. neurona; cited from earlier work
[12] = horses, 5 mg/kg daily for 10 days

## Cc1cc(-n2c(=O)[nH]c(=O)n(C)c2=O)ccc1Oc1ccc(SC(F)(F)F)cc1 [toltrazuril]
[1]
  cure rate: less than 25%
  relapse rate: 60%
  efficacy in horses to improve one grade of disease: 60%
[2]; [12]
  mean CSF concentration: 160 µg/mL
  plasma levels: 20000 ng/mL
[2]; in vivo, po
  oral absorption: good oral absorption
[2]; in vivo
  elimination time: 48 to 72 h
[3]
  lipid solubility: good lipid solubility
[4]
  complications, serum chemistry values, complete blood counts: has not been shown to result in any complications

## CCCCCCCCCCOc1cc2c(O)c(C(=O)OCC)cnc2cc1OCC [decoquinate, 6-declyoxy-7-ethoxy-4-hydroxy-3-quinoline-carboxylic acid ethyl ester]
[5]; decoquinate alone 0.05 mG/kG versus decoquinate/levamisole 0.5 mG/kG and 1.0 mg/kG
  time of therapy until noted improvement: > 5 days
[5]; prevention dose 0.05 mG/kG decoquinate alone, 90 days, 7 horses
  treatment outcome in mildly afflicted horses: success obtained in all the horses
[5]; relapse cases after Marquis (17) or pyrimethamine/sulfadiazine (2), decoquinate therapy started at 0.05 mG/kG
  success in historically relapsing horses: 100%
[6]
  adverse reactions: no adverse reactions
[7]
  parasites or parasite induced lesions in treated infected flasks: No parasites or parasite induced lesions were seen
[8]
  parasites or parasite induced lesions in treated infected flasks: No parasites or parasite induced lesions were seen
[9]
  cytopathic effect (CPE): 5%
[10]; 0.0001 microgram/ml continuously for 10 days
  reduction in merozoite production: 40%
[10]; 0.001 microgram/ml continuously for 10 days
  reduction in merozoite production: 87%
[10]; 0.01 microgram/ml continuously for 10 days
  reduction in merozoite production: 98%

## N#CC(c1ccc(Cl)cc1)c1c(Cl)cc(-n2ncc(=O)[nH]c2=O)cc1Cl (stereo not shown) [diclazuril]
[1]
  cure rate: less than 25%
  relapse rate: 60%
  efficacy in horses to improve one grade of disease: 60%
[2]; fed to horses
  time after feeding at which drug was found in serum: one
[11]
  anti-S. neurona activity in cell cultures: has anti-S. neurona activity

## c1ccc([C@H]2CN3CCSC3=N2)cc1 [levamisole]
[6]
  adverse reactions: no adverse reactions
